Reference: US9359451B2, “Methods and compositions for treating trauma-hemorrhage using estrogen and derivatives thereof” (THE UAB RESEARCH FOUNDATION, priority 2012, dated 2016)

What was measured:
[1] = rat, in vivo, iv
[2] = tested on: injured brain; assay: Traumatic brain injury: FDG-PET/CT, diffusion tensor imaging and MRI edema; assay type: in vivo, rat
Method: In a second experiment, the efficacy of E2-SO4 treatment for TBI in a lateral fluid percussion (LFP) model was examined. This involved 6 groups of rats (n=5/group). All rats received a craniectomy. Groups 1, 2, 4 and 5 received LFP injury. Groups 1 and 4 were treated with E2 (1 mg/kg) 1 hr post-injury, groups 2 and 5 were vehicle (Veh)-treated and groups 3 and 6 were sham. Groups 1-3 underwent intracranial pressure (ICP), cerebral perfusion pressure (CPP) and partial oxygen pressure (pbtO2) monitoring. Groups 4-6 underwent fludoexoyglucose (FDG)-PET/CT and diffusion tensor imaging (DTI) analysis on days 1 and 7 post-induction. Relative standard uptake values (SUV) of upper half of brain to central value, fractional anisotropy (FA) and apparent diffusion coefficient (ADC) maps were calculated.
Rats were either treated with E2 or a saline vehicle control, where treatment is administered 1 hour after injury. […] The former is the area of deranged nerves, while the latter constitutes intact nerves.

[3] = tested on: Splenocytes; assay: Splenocyte proliferation and cytokine release after trauma-hemorrhage (ex vivo, Con A); assay type: in vivo, mouse
Method: (§1) Experimental groups. Ovariectomy was performed in female CBA/J mice 2 wk before trauma-hemorrhage using two dorsolateral incisions. […] Two weeks after ovariectomy, the animals were divided into four groups. Groups 1 and 2 consisted of sham-operated ovariectomized females, which were neither hemorrhaged nor resuscitated. Animals in groups 3 and 4 consisted of ovariectomized females, which were subjected to the trauma-hemorrhage procedure. Immediately before initiation of fluid resuscitation, animals in groups 1 and 3 received a subcutaneous injection of vehicle ([…] corn oil), and animals in groups 2 and 4 were treated with E2 ([…]/25 g body wt dissolved in […] corn oil). Each group consisted of 7-8 animals.
(§2) Trauma-hemorrhage procedure. Mice in the trauma-hemorrhage groups were lightly anesthetized with methoxyflurane (Metofane; Pitman Moore, Mundelein, Ill.) and restrained in a supine position, and a 2.5-cm midline laparotomy (i.e., soft tissue trauma induced) was performed, which was then closed aseptically in two layers using 6-0 Ethilon sutures (Ethicon, Somerville, N.J.). Both femoral arteries were then aseptically cannulated with polyethylene-10 tubing (Clay-Adams, Parsippany, N.J.) using a minimal dissection technique, and the animals were allowed to awaken. Blood pressure was constantly monitored by attaching one of the catheters to a blood pressure analyzer (Micro-Med, Louisville, Ky.). Lidocaine was applied to the incision sites to provide analgesia during the study period. Upon awakening, the animals were bled through the other catheter to a mean arterial blood pressure of 35±5 mmHg (mean arterial blood pressure prehemorrhage was 95±5 mmHg), which was maintained for 90 min. At the end of that procedure, the animals were resuscitated with four times the shed blood volume in the form of lactated Ringer solution. The catheters were then removed, the vessels were ligated, and the groin incisions were closed. Sham-operated animals underwent the same surgical procedure, which included ligation of both femoral arteries, but neither hemorrhage nor fluid resuscitation was carried out. There was no mortality observed in this model of trauma-hemorrhage.
Preparation of splenocyte culture. At 24 h after sham operation or trauma-hemorrhage and resuscitation, the spleens were removed aseptically and placed in separate petri dishes containing 4° C. phosphate-buffered saline (PBS) solution. Splenocytes were isolated as previously described in detail (Zellweger 1995). Briefly, the organs were gently ground between frosted microscope slides to produce a single cell suspension. This suspension was centrifuged at 300 g for 15 min. After resuspension, the erythrocytes were lysed hypotonically, and the remaining cells were washed with PBS by centrifugation (300 g, 15 min). Viability was tested using trypan blue exclusion and found to be ˜95% regardless of the group assessed. […] The ability of the splenocyte cultures to produce cytokines in response to a mitogenic challenge was assessed by incubation for 48 h (at 37° C., 5% CO2, and 90% humidity) in the presence of […] concanavalin A (Con A; Pharmacia/LKB Biotech, Piscataway, N.J.). […]
Splenocyte proliferation. […] The cells' ability to proliferate in response to mitogenic stimulation with 0 (negative control) or […] Con A was measured by [^3H]thymidine incorporation technique as previously de scribed (Stephan 1987). […]

[4] = tested on: splenic macrophages (sMΦ) and peritoneal macrophages (pMΦ); assay: Splenic and peritoneal macrophage cytokine release after trauma-hemorrhage (ex vivo, LPS); assay type: in vivo, mouse; conditions: 24 h after trauma-hemorrhage, LPS 48 h
Method: as §1, §2
Preparation of sMΦ and pMΦ culture. Spleens were harvested aseptically, and sMΦ cultures were established as previously described in detail (Zellweger 1996). Resident pMΦ were harvested by peritoneal lavage at 24 h after sham operation or trauma-hemorrhage and resuscitation, and monolayers were established as previously described (Ayala 1990). The monolayers of sMΦ and pMΦ (1×10^6 cells/ml) were stimulated with […] of lipopolysaccharide W/ml Click's medium containing 10% heat-inactivated FBS for 48 h at 37° C., 5% CO2, and 90% humidity to assess the cells' ability to release cytokines (Lipopolysaccharide W was from Escherichia coli 055:B5, Difco Laboratories, Detroit, Mich.) At the end of the incubation period, the culture supernatants were removed, centrifuged at 300 g for 15 min, divided into aliquots, and stored.
IL-10 concentrations in macrophage and splenocyte supernatants and IFN-γ levels in the splenocyte supernatants were determined using sandwich-enzyme-linked immunosorbent assay technique (ELISA) according to the manufacturer's recommendations (BD OptEIA ELISA set; BD Pharmingen, San Diego, Calif.).
IL-6 activity was determined by assessing the 72-h proliferation of the IL-6-dependent murine B cell hybridoma 7TD1 stimulated by serial dilutions of sMΦ and pMΦ supernatants (Ayala 1992). For the last 3 h of incubation, […] of a 3-(4,5-dimethylthiazol-2-yl)-2,5-diphenyltetrazolium bromide solution (5 mg/ml in RPMI 1640; Sigma Chemical, St. Louis, Mo.) was added to each well. The amount of dark blue formazan crystal formation was then measured spectrophotometrically. […]

[5] = 24 h after trauma-hemorrhage, Con A 48 h

## C[C@]12CC[C@@H]3c4ccc(O)cc4CC[C@H]3[C@@H]1CC[C@@H]2O [17β-estradiol]
[1]
  blood levels after injection: attains high blood levels rapidly
[2]; FIG. 49, treatment 1 hour after injury, images 24 hr after treatment
  reduction in FA, sum of volumes from DTI slices, compared to vehicle controls: approximately 50%
[2]; between Veh and treated groups
  FA (fractional anisotropy) change: No significant FA change
[2]; day 1, treated group
  Edema size: 10.4±2.6 mm^3
[2]; day 7, treated group
  Edema size: 1.2±0.7 mm^3
[3]; [5]
  splenocyte IFN-γ release: no depression of IFN-γ production was observed
  splenocyte IL-2 production: restored IL-2 productive capacity
  splenocyte IL-3 release: significantly improved splenocyte IL-3 release capacity
[3]; 24 h after trauma-hemorrhage, Con A, [3H]thymidine
  splenocyte proliferative capacity: no depression of splenocyte proliferative capacity was observed
[3]; after trauma-hemorrhage compared with E2-treated sham-operated animals
  splenocyte IL-10 production: significantly reduced IL-10 production
[4]
  pMΦ IL-1β release: partial restoration of pMΦ IL-1β release
  pMΦ IL-6 production: maintained at sham levels
  pMΦ IL-10 production: not affected by either trauma-hemorrhage or E2 treatment
  sMΦ IL-6 release: did not influence IL-6 release
  sMΦ IL-10 release: significantly reduced IL-10 release
  sMΦ IL-12 production: prevented the depression in sMΦ IL-12 production
